Experimental data as given in patent US20100311726A1, “REDUCTION OF BETA-AMYLOID LEVELS BY TREATMENT WITH THE SMALL MOLECULE DIFFERENTIATION-INDUCING FACTOR” (priority 2007, published 2010).

Tests used:
human APLP2 = experiment: APLP2 CTF levels in CHO cells expressing APLP2; format: cell-based; details: co-treatment of DIF-1 and DAPT
Text: To ascertain if DIF-1 indiscriminately perturbs the metabolism of type I transmembrane proteins we investigated the processing of other γ-secretase substrates.

[1] = system: APP phosphorylation on residue T668; experiment: APP T668 phosphorylation by western blot; format: cell-based, human; details: CHO-7W and CHO-CAB; DAPT alone, or DAPT with DIF-1 (30 μM)
Protocol: Next, whether or not DIF-1 treatment affected the degree of T668 phosphorylation was examined by western blot (FIG. 11). Briefly, effects of DIF-1 on APP T668 phosphorylation were compared between vehicle-treated control and 250 nM of DAPT identically in each cell line. Western analysis of 15 μg of total protein was probed overnight at 4° C. with anti-APP Cterminal antibody (C66-676-695) (1:5000) and then detected on film using ECL and HRP-conjugated secondary antibodies (1:5000). […] This band has also been detected in other CHO lines where APP expression is high (˜3 fold) and by different C-terminal APP antibodies (Ab8717-676-695; except 6E10 which recognizes the N-terminal residues 1-17 of the Aβ sequence. For FIG. 11A, cells were treated with DAPT, and DAPT+DIF then were probed with anti-APP antibody (C66). For FIG. 11B, CHO-7W cells were treated with DAPT, and DAPT+DIF, and then probed with polyclonal anti-P668 APP antibody (1:1000) overnight at 4° C. in 5% BSA. After washing, cells were probed with a rabbit HRP-conjugated secondary antibody (1:5000) in BSA for 1 hour at room temperature and signals were detected on film using ECL. FIG. 11C represents CHO-CAB cells and FIG. 11D represents H4 cells expressing APP^SW.

CHO cells = experiment: Cell proliferation assay (haemocytometer counts); format: cell-based, Chinese Hamster
Text: For proliferation assays, 1×10^4 cells were deposited into 24-well plates and treated with vehicle (ethanol or DMSO) or with various amounts of DIF-1 or DIF-3 for a period of 4 days. Cells were harvested after each day by trypsin/EDTA treatment, stained with an equal volume of 0.05% Trypan blue and enumerated in triplicate twice using a haemocytometer. Dead cells are stained blue, but live cells with intact cell membranes are not coloured. Data represents the mean cell number±the standard deviation for at least 3 separate experiments.
We therefore assessed the dose-dependent anti-proliferative effect of DIF-1 on normal (non-transformed) CHO cells (FIG. 1A). Briefly, CHO cells were seeded on a 6-well plate (10,000 cells/well) and were incubated with 25 μM DIF-1. Cells were harvested by the trypsin/EDTA treatment at the times indicated and counted with a haemocytometer. […] Therefore, for this study we only analyzed the effect of DIF-1 between 18 and 20 hours.

APPT668A and APPT668E = experiment: APP processing in CHO cells expressing APP T668A or T668E; format: cell-based, human; details: 30 μM
Text: To assess whether or not the decrease in phosphorylated APP seen in DIF-1 treated cells contributed mechanistically to the reduction of maturation, secretion and metabolic processing of APP^751, mutants were generated using APP^751 in which T724 (APP^751 numbering) was mutated to either an alanine residue such that phosphorylation could not occur, or a glutamic acid residue that should mimic constitutive phosphorylation of APP. APP^751, Isoform B, NM_201413 was used as a template. We essentially used Stratagene's QuickChange® Site-Directed Mutagenesis Kit (Catalog #200518) to create the desired mutations as recommended by the manufacturer with the following exceptions. The APP^751 codon for threonine 724 (ACC) was mutated to code for Alanine (A) (GCC) and Glutamic Acid (E) (GAA), respectively. The following mutagenesis primers were used to create each mutation. […]
Cells were diluted and plated in multiple 10 cm tissue culture dishes and allowed to recover overnight in Dulbecco's modified Eagle's medium containing 4.5 mg/ml D-glucose supplemented with 10% fetal bovine serum and 100 units/ml penicillin, 100 μg/ml streptomycin, 2 mM L-glutamine (Sigma) at 37° C. in a 5% CO2 atmosphere. […] Protein extracts were assessed for APPT724A and APPT724E expression levels compared to naïve cells by western blot using polyclonal anti-APP C-terminal antibodies (C66). […]

CCCCCC(=O)c1c(O)c(Cl)c(OC)c(Cl)c1O [DIF-1, 1-[3,5-dichloro-2,6-dihydroxy-4-methoxyphenyl]-1-hexanone]
APLP2 CTF levels (human APLP2): decrease in APLP2 CTF levels
amount of T668 phosphorylated APP CTFs [1]: large reduction in the amount of T668 phosphorylated APP CTFs
inhibition of growth (CHO cells; 25 μM, 24 hours): minor, yet insignificant inhibition of growth
decrease in proliferation compared to control and vehicle treated cells (CHO cells; after 72 hours, all cell lines tested (e.g. CHO, N2a and SH-SY5Y)): 70-75%
reversibility of antiproliferative effect (CHO cells; washing treated cells with PBS and fresh growth media): readily reversed
effect of DIF-1 on APP maturation and CTFs in T668A or T668E mutant APP (APPT668A and APPT668E): completely abolished the effect of DIF-1 on APP maturation and the reduction of both αCTF and βCTF levels
